Data on 20 compounds can be found in patent publication US20050096278A1, “Antibacterial agents” (priority 2003, published 2005).

For one series, the system named is S pyogenes C203. In words: Antibacterial assay (standard microtitration), MIC. As to conditions: Gram Positive Bacteria, Table 1B; for MIC: read-out: Minimum Inhibitory Concentrations, S pyogenes C203. Type of series: cell-based. The method, then:
(§1) Test A—Antibacterial Assays
(§2) The compounds of the present invention were tested against an assortment of Gram-negative and Gram-positive organisms using standard microtitration techniques (Cohen et. al., Antimicrob., 1985;28:766; Heifetz, et. al., Antimicrob., 1974;6:124). The results of the evaluation are shown in Tables 1A and B. In the tables, “—” means no data.

The test system of the next series is E. faecalis MGH-2. In words: Antibacterial assay (standard microtitration), MIC. Type of series: cell-based. As to conditions: Gram Positive Bacteria, Table 1B; for MIC: Enterococcus faecalis, MGH2, read-out: Minimum Inhibitory Concentrations, E. faecalis MGH-2. The method, then: as §1, §2
The next series relates to S. aureus UC-76. In words: Antibacterial assay (standard microtitration), MIC. Type of series: cell-based. The note with it: Table 1B; for MIC: Staphylococcus aureus, UC76, Gram Positive Bacteria, read-out: Minimum Inhibitory Concentrations, S. aureus UC-76. On the procedure: as §1, §2
In a further series the test system is E. coli MC4100. The series can be described thus: Antibacterial assay (standard microtitration), MIC. It is filed as cell-based. As to conditions: Escherichia coli, MC4100; Gram Negative Bacteria; Table 1A; read-out: Minimum Inhibitory Concentrations, E. coli MC4100. On the procedure: as §1, §2
The next series concerns M. catarrhalis BC-3531. In words: Antibacterial assay (standard microtitration), MIC. As to conditions: Moraxella catarrhalis, BC3531; Gram Negative Bacteria; Table 1A; read-out: Minimum Inhibitory Concentrations, M. catarrhalis BC-3531. It is filed as cell-based. The method, then:
as §1, §2

In another series the test system is H. influenzae HI-3542. In words: Antibacterial assay (standard microtitration), MIC. It is filed as cell-based. As to conditions: Haemophilus influenzae, HI3542; Gram Negative Bacteria; Table 1A; read-out: Minimum Inhibitory Concentrations, H. influenzae HI-3542. On the procedure:
as §1, §2

≈ marks a conversion by molar mass, not a printed value.

Regarding `COc1c(N2CCCC(CO)C2)c(F)cc2c(=O)c(C(=O)O)cn(C3CC3)c12` (centres unmarked) [drawing 354], the MIC was determined as 0.25 µg/mL (≈ 0.64 µM) in the series on S pyogenes C203, 0.125 µg/mL (≈ 0.32 µM) in the series on E. faecalis MGH-2 and 0.015 µg/mL (≈ 0.0384 µM) in the series with S. aureus UC-76.

Regarding `Cc1c(N2CCC(O)C(CO)C2)c(F)cc2c(=O)c(C(=O)O)cn(C3CC3)c12` (centres unmarked), the MIC in the series with S pyogenes C203 stood at 0.25 µg/mL (≈ 0.64 µM); in the series on E. faecalis MGH-2, 0.25 µg/mL (≈ 0.64 µM); in the series on S. aureus UC-76, 0.015 µg/mL (≈ 0.0384 µM).

In the case of `COc1c(N2CCC(O)C(C)C2)c(F)cc2c(=O)c(C(=O)O)cn(C3CC3)c12` (centres unmarked) [drawing 356], in the series with S pyogenes C203, the “Minimum Inhibitory Concentrations, S pyogenes C203” value worked out at 0.25 µg/mL. The “Minimum Inhibitory Concentrations, E. faecalis MGH-2” value in the series on E. faecalis MGH-2 worked out at 0.125 µg/mL. The “Minimum Inhibitory Concentrations, S. aureus UC-76” value in the series with S. aureus UC-76 (Gram Positive Bacteria) is 0.0008 µg/mL.

For the compound `COc1c(N2CCC(O)(CO)CC2)c(F)cc2c(=O)c(C(=O)O)cn(C3CC3)c12` [drawing 347], the MIC is 1 µg/mL (≈ 2.46 µM) in the series on S pyogenes C203, 1 µg/mL (≈ 2.46 µM) in the series on E. faecalis MGH-2 and 0.015 µg/mL (≈ 0.0369 µM) with S. aureus UC-76.

As to `COc1c(N2CCC3(CC2)OCCO3)c(F)cc2c(=O)c(C(=O)O)cn(C3CC3)c12` [drawing 343], the MIC in the series on S pyogenes C203 was determined as 0.25 µg/mL (≈ 0.597 µM); with E. faecalis MGH-2, 0.25 µg/mL (≈ 0.597 µM); with S. aureus UC-76 it was 0.015 µg/mL (≈ 0.0358 µM).

On to `Cc1c(N2CCC(O)C(C)(C)C2)c(F)cc2c(=O)c(C(=O)O)cn(C3CC3)c12` (centres unmarked) [drawing 330], for which the MIC was found to be 2 µg/mL (≈ 5.15 µM) in the series on E. coli MC4100, 0.5 µg/mL (≈ 1.29 µM) in the series on M. catarrhalis BC-3531 and 0.125 µg/mL (≈ 0.322 µM) in the series with H. influenzae HI-3542.

As for `Cc1c(N2CCCC(O)C2)c(F)cc2c(=O)c(C(=O)O)cn(C3CC3)c12` (centres unmarked) [drawing 359], the MIC in the series with S pyogenes C203 stood at 0.125 µg/mL (≈ 0.347 µM); with E. faecalis MGH-2, 0.125 µg/mL (≈ 0.347 µM); in the series on S. aureus UC-76 it was 0.015 µg/mL (≈ 0.0416 µM).

Turning to `COc1c(N2CCC(O)(CO)CC2)c(F)cc2c(=O)c(C(=O)O)cn(C3CC3)c12`, the melting point is 200 to 210 °C (dec.).

As for `COc1c(N2CCCC(O)(CO)C2)c(F)cc2c(=O)c(C(=O)O)cn(C3CC3)c12` (centres unmarked) [drawing 355], the figures for the MIC in the series on S pyogenes C203, in the series on E. faecalis MGH-2 and in the series on S. aureus UC-76 were 2 µg/mL (≈ 4.92 µM), 1 µg/mL (≈ 2.46 µM) and 0.06 µg/mL (≈ 0.148 µM), respectively.

The compound `COc1c(N2CCC(O)C(CO)C2)c(F)cc2c(=O)c(C(=O)O)cn(C3CC3)c12` (centres unmarked) yielded a melting point of 115 to 125 °C.

`COc1c(N2CCC(O)(CO)CC2)c(F)cc2c(=O)c(C(=O)O)cn(C3CC3)c12` [drawing 328]: the MIC with E. coli MC4100 worked out at 0.25 µg/mL (≈ 0.615 µM); with M. catarrhalis BC-3531 it was 0.125 µg/mL (≈ 0.308 µM); in the series with H. influenzae HI-3542, 0.015 µg/mL (≈ 0.0369 µM).

For the compound `COc1c(N2CCC(CO)CC2)c(F)cc2c(=O)c(C(=O)O)cn(C3CC3)c12` [drawing 329], the figures for the MIC in the series with E. coli MC4100, with M. catarrhalis BC-3531 and in the series on H. influenzae HI-3542 were 0.125 µg/mL (≈ 0.32 µM), 0.015 µg/mL (≈ 0.0384 µM) and 0.015 µg/mL (≈ 0.0384 µM), respectively.

For `COc1c(N2CCC(O)(c3ccccc3)CC2)c(F)cc2c(=O)c(C(=O)O)cn(C3CC3)c12` [drawing 333], the MIC with E. coli MC4100 stood at 32 µg/mL (≈ 70.7 µM); in the series on M. catarrhalis BC-3531, 1 µg/mL (≈ 2.21 µM); in the series on H. influenzae HI-3542, 2 µg/mL (≈ 4.42 µM).

For the compound `COc1c(N2CCCC(O)(CO)C2)c(F)cc2c(=O)c(C(=O)O)cn(C3CC3)c12` (centres unmarked) [drawing 336], the MIC in the series with E. coli MC4100 was determined as 1 µg/mL (≈ 2.46 µM); in the series on M. catarrhalis BC-3531, 0.5 µg/mL (≈ 1.23 µM); with H. influenzae HI-3542, 0.03 µg/mL (≈ 0.0738 µM).

Consider `COc1c(N2CCC3(CC2)OCCO3)c(F)cc2c(=O)c(C(=O)O)cn(C3CC3)c12` [drawing 325], for which the MIC came to 0.5 µg/mL (≈ 1.19 µM) with E. coli MC4100, 0.06 µg/mL (≈ 0.143 µM) in the series with M. catarrhalis BC-3531 and 0.06 µg/mL (≈ 0.143 µM) in the series with H. influenzae HI-3542.

On to `COc1c(N2CCC(O)C(C)(C)C2)c(F)cc2c(=O)c(C(=O)O)cn(C3CC3)c12` (centres unmarked) [drawing 350], for which the MIC in the series with S pyogenes C203 amounted to 0.5 µg/mL (≈ 1.24 µM); in the series on E. faecalis MGH-2, 0.25 µg/mL (≈ 0.618 µM); in the series on S. aureus UC-76, 0.015 µg/mL (≈ 0.0371 µM).

In the case of `COc1c(N2CCC(O)(c3ccccc3)CC2)c(F)cc2c(=O)c(C(=O)O)cn(C3CC3)c12` [drawing 352], the MIC in the series on S pyogenes C203 is 2 µg/mL (≈ 4.42 µM); in the series with E. faecalis MGH-2, 32 µg/mL (≈ 70.7 µM); in the series on S. aureus UC-76, 0.25 µg/mL (≈ 0.553 µM).

As for `Cc1c(N2CCC(O)C(C)(C)C2)c(F)cc2c(=O)c(C(=O)O)cn(C3CC3)c12` (centres unmarked) [drawing 349], the MIC in the series with S pyogenes C203 was 8 µg/mL (≈ 20.6 µM); with E. faecalis MGH-2, 8 µg/mL (≈ 20.6 µM); with S. aureus UC-76 it was 0.25 µg/mL (≈ 0.644 µM).

For the compound `COc1c(N2CCC(O)C(C)C2)c(F)cc2c(=O)c(C(=O)O)cn(C3CC3)c12` (centres unmarked) [drawing 332], the MIC came out at 0.25 µg/mL (≈ 0.64 µM) in the series on E. coli MC4100, 0.03 µg/mL (≈ 0.0768 µM) with M. catarrhalis BC-3531 and 0.03 µg/mL (≈ 0.0768 µM) in the series on H. influenzae HI-3542.

As to `COc1c(N2CCC(C(O)CO)CC2)c(F)cc2c(=O)c(C(=O)O)cn(C3CC3)c12` (centres unmarked) [drawing 346], the MIC in the series on S pyogenes C203 was 0.25 µg/mL (≈ 0.595 µM); in the series on E. faecalis MGH-2, 0.25 µg/mL (≈ 0.595 µM); in the series on S. aureus UC-76, 0.015 µg/mL (≈ 0.0357 µM).

A word on the melting point: it is the temperature, or range, at which the solid turns liquid.
